Experimental data from publication PMC3388095, “Fluorophore Labeled Kinase Detects Ligands That Bind within the MAPK Insert of p38α Kinase” (PLoS ONE, 2012).

Target: T1, p38α MAPK insert (Homo sapiens, UniProt Q16539, C119S/C162S/S252C)
T1 construct: His-tag with PreScission Protease cleavage site (N); made in house; host or cells: E. coli BL21(DE3) Codon+RIL
Assay: FLiK direct binding assay, acrylodan-labeled p38α (S252C) MAPK insert / lipid binding site
Conditions: binding to p38α MAPK insert
Experimental: The human p38α kinase construct containing the mutations required for specific labeling (C119S/C162S/S252C) as well as wild type p38α were cloned into a pOPINF vector and transformed as an N-terminal His-tag construct with a PreScission Protease cleavage site into BL21(DE3) Codon+RIL E. coli. Protein expression, purification, fluorophore labeling and verification of mono-labeling of the kinase were performed essentially as described previously. Labeling of the mutant p38α protein with thiol-reactive acrylodan was carried out by adding a 1.5∶1 molar excess of the fluorophore (dissolved in DMSO) to the purified protein in 50 mM Hepes Buffer (pH 7.0). The mixture was allowed to react in the dark overnight at 4°C. Unreacted acrylodan was subsequently removed by three cycles of buffer exchange into FLiK Measurement Buffer (50 mM Hepes Buffer, pH 7.4+200 mM NaCl) using a 10k-MWCO Centricon. The protein was concentrated to ∼200 μM, aliquoted and frozen at −80°C. Mono-labeling of the protein was verified by ESI-MS as described previously, [24].
Characterization of the fluorescence response of MAP insert-labeled p38α was carried out as described previously for p38α labeled on the activation loop. […] Briefly, a polystyrene cuvette containing a suspension of 50 nM acrylodan-labeled p38α in FLiK Buffer was excited at 386 nm and emission spectra were measured in the absence and presence of increasing concentrations of 1b. The compound was dissolved in 100% DMSO and delivered in sequential small doses to a single sample. […] Ratiometric fluorescence readouts are advantageous in that they provide an internal correction for small errors in sample volume which can affect signal intensity. All measurements of the cuvettes were made with a JASCO FP-6500 fluorescence spectrophotometer (JASCO GmbH, Germany).
The assay was adapted to high-throughput screening formats which enabled KD values to be determined in black small volume assay plates. Briefly, a dilution series of each compound was first prepared in 100% DMSO at 20X the desired final concentration and 1 μL was transferred to the assay plate. Compounds were then mixed with 19 µL of FLiK Buffer (supplemented with 0.01% Triton X-100) containing acrylodan-labeled p38α (100 nM). The final concentration of compound in the dilution series ranged from 0–50 μM (5% v/v DMSO final). Plates were covered with an adhesive aluminum foil and incubated for 30 min at RT prior to measurement of emission intensities at 470 and 520 nm using a Tecan Safire^2 plate reader. […] Binding curves were plotted using the ratio R = I520/I470 to determine the KD.

[1] = ratiometric acrylodan emission, each concentration in triplicate

T1 sequence (Q16539 whole entry C119S/C162S/S252C): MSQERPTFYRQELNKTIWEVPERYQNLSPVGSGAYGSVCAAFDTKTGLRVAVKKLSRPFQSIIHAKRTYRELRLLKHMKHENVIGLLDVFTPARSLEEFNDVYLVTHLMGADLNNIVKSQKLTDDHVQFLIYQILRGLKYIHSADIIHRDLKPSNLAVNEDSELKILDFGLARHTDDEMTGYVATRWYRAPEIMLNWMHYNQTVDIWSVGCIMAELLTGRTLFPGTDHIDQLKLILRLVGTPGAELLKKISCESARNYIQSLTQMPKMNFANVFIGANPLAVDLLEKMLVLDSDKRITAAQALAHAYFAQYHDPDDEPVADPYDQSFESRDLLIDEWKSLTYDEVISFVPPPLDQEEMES

Row | Kd [1] | Kd (value as printed in text) | Structure (SMILES)
1 | 0.32 ± 0.09 µM |  | O=[N+]([O-])c1ccc2c(NCc3ccccc3)nc(-c3ccccc3)nc2c1 [7a, N-Benzyl-7-nitro-2-phenyl-4-quinazolinamine]
2 | 2.2 ± 0.8 µM |  | Nc1ccc2c(NCc3ccccc3)nc(-c3ccccc3)nc2c1 [7b, N^4-Benzyl-2-phenyl-4,7-quinazolinediamine]
3 | 0.81 ± 0.1 µM |  | O=[N+]([O-])c1ccc2c(NCc3ccccc3)nc(-c3ccncc3)nc2c1 [7c, N-Benzyl-7-nitro-2-(4-pyridinyl)-4-quinazolinamine]
4 |  | 0.28 µM | O=[N+]([O-])c1ccc2c(NCCc3ccccc3)nc(-c3ccccc3)nc2c1 [8a, 7-Nitro-2-phenyl-N-(2-phenylethyl)-4-quinazolinamine]
5 | 1.2 ± 0.3 µM |  | Nc1ccc2c(NCCc3ccccc3)nc(-c3ccccc3)nc2c1 [8b, 2-Phenyl-N^4-(2-phenylethyl)-4,7-quinazolinediamine]
6 | 1.8 ± 0.3 µM |  | O=[N+]([O-])c1ccc2c(NCCc3ccccc3)nc(-c3ccncc3)nc2c1 [8c, 7-Nitro-N-(2-phenylethyl)-2-(4-pyridinyl)-4-quinazolinamine]

The remaining lines, values behind:

Row | Structure (SMILES) | Kd [1] | Kd (value as printed in text)
7 | O=[N+]([O-])c1ccc2c(NC3CC3)nc(-c3ccccc3)nc2c1 [1a, N-Cyclopropyl-7-nitro-2-phenyl-4-quinazolinamine] | 1.9 ± 0.2 µM | 
8 | O=[N+]([O-])c1ccc2c(NC3CC3)nc(-c3ccncc3)nc2c1 [5a, N-Cyclopropyl-7-nitro-2-(4-pyridinyl)-4-quinazolinamine] | > 10 µM | 
9 | Nc1ccc2c(NC3CC3)nc(-c3ccncc3)nc2c1 [5b, N^4-Cyclopropyl-2-(4-pyridinyl)-4,7-quinazolinediamine] | > 50 µM | 
10 | O=[N+]([O-])c1ccc2c(NCC3CC3)nc(-c3ccccc3)nc2c1 [6a, N-(Cyclopropylmethyl)-7-nitro-2-phenyl-4-quinazolinamine] | 0.46 ± 0.21 µM | 
11 | Nc1ccc2c(NCC3CC3)nc(-c3ccccc3)nc2c1 [6b, N^4-(Cyclopropylmethyl)-2-phenyl-4,7-quinazolinediamine] | 4.7 ± 0.7 µM | 
